Measured values published in the RepoRT retention time repository (doi:10.1007/s00216-013-6954-6).

assay: RP, Waters ACQUITY UPLC HSS T3, 100 × 1 mm, 1.8 µm; A: water + 0.1% formic acid, pH 3; B: acetonitrile + 0.1% formic acid, pH 3; gradient (min/%B) 0/5 1/5 16/95 18/95 20/5; conditions: stereoisomer not certain

SMILES | LC retention time
CC12CCC(=O)C=C1CCC1C2C(=O)CC2(C)C1CCC2(O)C(=O)CO (stereo not drawn) [Cortisone] | 6.61 min
CCC(C)C(N)C(=O)NC(C(=O)O)C(C)CC (stereo not drawn) [H-Ile-Ile-OH] | 3.1 min
CSCCCCCCCC(N)C(=O)O (stereo not drawn) [Pentahomo-Met] | 4.6 min
CSCCC(N)C(=O)O (stereo not drawn) [Methionine] | 0.643 min
CCCCCCCCC=CCCCCCCCC(=O)OCC(O)COP(=O)([O-])OCC[N+](C)(C)C (stereo not drawn) [lysoPC(18:1(9Z)/0:0)] | 12 min
O=C(O)CCCCC(=O)O [Adipic acid] | 2.33 min
CCC(C)C(N)C(=O)O (stereo not drawn) [Isoleucine] | 0.795 min
CC(CCC(=O)O)C1CCC2C3C(O)CC4CC(O)CCC4(C)C3CC(O)C12C (stereo not drawn) [Cholic acid] | 8.94 min
CC(CCC(=O)NCCS(=O)(=O)O)C1CCC2C3C(O)CC4CC(O)CCC4(C)C3CC(O)C12C (stereo not drawn) [Taurocholic acid] | 7.57 min

The next lines start with the values.

LC retention time | SMILES
0.525 min | Nc1ncnc2nc[nH]c12 [Adenine]
4.2 min | CC(C)CC(N)C(=O)NC(Cc1ccccc1)C(=O)O (stereo not drawn) [H-Leu-Phe -OH]
3 min | CC(C)C(NC(=O)C(N)Cc1ccccc1)C(=O)O (stereo not drawn) [H-Phe-Val-OH]
1.6 min | Cc1cn(C2CC(O)C(CO)O2)c(=O)[nH]c1=O (stereo not drawn) [Thymidine]
1.7 min | NC(Cc1ccccc1)C(=O)NCC(=O)O (stereo not drawn) [H-Phe-Gly-OH]
3.2 min | CC(C)CC(NC(=O)C(N)Cc1ccc(O)cc1)C(=O)O (stereo not drawn) [H-Tyr-Leu-OH]
2.9 min | CCC(C)C(NC(=O)C(N)Cc1ccc(O)cc1)C(=O)O (stereo not drawn) [H-Tyr-Ile-OH]
3.3 min | CC(C)C(N)C(=O)NC(Cc1ccccc1)C(=O)O (stereo not drawn) [H-Val-Phe-OH]
4.5 min | COc1cc2ccc(=O)oc2cc1O [Scopoletin]
2.3 min | NCC(=O)NC(Cc1ccccc1)C(=O)O (stereo not drawn) [H-Gly-Phe-OH]
0.407 min | Cn1cnc(C[C@H](N)C(=O)O)c1 [1-Methyl-L-Histidine]

assay: RP, Waters ACQUITY UPLC HSS T3, 150 × 2.1 mm, 1.8 µm; A: water + 0.1% formic acid; B: acetonitrile + 0.1% formic acid; gradient (min/%B) 0/5 1/5 16/95 18/95; conditions: stereoisomer not certain

SMILES | LC retention time
CCC(C)C(N)C(=O)O (stereo not drawn) | 0.795 min
O=C(O)CCCC(=O)O | 1.14 min
O=C(O)CCCCCC(=O)O | 3.47 min
NCc1c[nH]c2ccccc12 | 1.8 min
NCCS(=O)(=O)O | 0.446 min
COc1cccc2[nH]cc(CN)c12 | 3.2 min
CC(C(=O)O)C(=O)O | 0.733 min
CC(CCC(=O)O)C1CCC2C3C(O)CC4CC(O)CCC4(C)C3CCC12C (stereo not drawn) | 10.5 min
CCC(C)C(N)C(=O)NC(C(=O)O)C(C)CC (stereo not drawn) | 3.1 min
CC(C)CC(N)C(=O)N1CCCC1C(=O)O (stereo not drawn) | 2.62 min
O=C(O)CCCCCCCC(=O)O | 5.35 min
O=C(O)CCCCC(=O)O | 2.33 min
CS(=O)CCCCCCCCN=C=S (stereo not drawn) | 8.1 min
O=c1ccc2cc(OC3OC(CO)C(O)C(O)C3O)c(O)cc2o1 (stereo not drawn) | 2.9 min
CSCCCCCCCCC(N)C(=O)O (stereo not drawn) | 5.4 min
O=C(O)Cc1ccccc1 | 3.6 min
NC(=O)NCCCC(N)C(=O)O (stereo not drawn) | 0.457 min
CCCCCCCCCCCCCCCC(=O)OCC(O)COP(=O)([O-])OCC[N+](C)(C)C (stereo not drawn) | 11.6 min

SMILES | LC retention time
CCCCCCCCC=CCCCCCCCC(=O)OCC(O)COP(=O)(O)OCC[N+](C)(C)C (stereo not drawn) | 12 min
CC12CCC(=O)C=C1CCC1C2C(O)CC2(C)C1CCC2(O)C(=O)CO (stereo not drawn) | 6.56 min
CSCCC(N)C(=O)O (stereo not drawn) | 0.643 min
CC(C)CC(NC(=O)C(N)C(C)C)C(=O)O (stereo not drawn) | 2.7 min
CC(CCC(=O)NCCS(=O)(=O)O)C1CCC2C3C(O)CC4CC(O)CCC4(C)C3CC(O)C12C (stereo not drawn) | 7.57 min
CC(CCC(=O)O)C1CCC2C3CCC4CC(O)CCC4(C)C3CC(O)C12C (stereo not drawn) | 10.7 min
NC(N)=NCCCC(N)C(=O)O (stereo not drawn) | 0.413 min
CC12CCC(=O)C=C1CCC1C2C(=O)CC2(C)C1CCC2(O)C(=O)CO (stereo not drawn) | 6.61 min
CSCCCCCCCC(N)C(=O)O (stereo not drawn) | 4.6 min
CC(C)CC(N)C(=O)O (stereo not drawn) | 0.795 min
CC(C)CC(N)C(=O)NC(CC(C)C)C(=O)O (stereo not drawn) | 3.6 min
CC(CCC(=O)NCC(=O)O)C1CCC2C3C(O)CC4CC(O)CCC4(C)C3CC(O)C12C (stereo not drawn) | 7.92 min
O=C(O)C1CCCN1 (stereo not drawn) | 0.482 min
O=C1CCC(C(=O)O)N1 (stereo not drawn) | 0.687 min
O=C(O)C(O)Cc1ccccc1 (stereo not drawn) | 4.37 min
CCC(C)C(N)C(=O)NC(CC(C)C)C(=O)O (stereo not drawn) | 3.4 min
CCC(C)C(NC(=O)C(N)CC(C)C)C(=O)O (stereo not drawn) | 3.3 min
CC(CCC(=O)O)C1CCC2C3C(O)CC4CC(O)CCC4(C)C3CC(O)C12C (stereo not drawn) | 8.94 min

Next, values leading:

LC retention time | SMILES
5.1 min | O=Cc1c[nH]c2cccc(O)c12
4.2 min | CC(C)CC(N)C(=O)NC(Cc1ccccc1)C(=O)O (stereo not drawn)
0.638 min | O=c1cc[nH]c(=O)[nH]1
3.8 min | CCC(C)C(NC(=O)C(N)Cc1ccccc1)C(=O)O (stereo not drawn)
0.643 min | O=c1[nH]c(=O)c2[nH]c(=O)[nH]c2[nH]1
1.95 min | Nc1ccc(C(=O)O)cc1
4.7 min | O=C(O)c1c[nH]c2ccccc12
3.7 min | COn1cc(CN)c2ccccc21
2.3 min | NCC(=O)NC(Cc1ccccc1)C(=O)O (stereo not drawn)
3.3 min | COc1cc2ccc(=O)oc2cc1OC1OC(CO)C(O)C(O)C1O (stereo not drawn)
3.39 min | O=C(O)CNC(=O)c1ccccc1
3.1 min | O=C(O)C1Cc2c([nH]c3ccccc23)CN1 (stereo not drawn)
3.9 min | CCC(C)C(N)C(=O)NC(Cc1ccccc1)C(=O)O (stereo not drawn)
3 min | CC(C)C(NC(=O)C(N)Cc1ccccc1)C(=O)O (stereo not drawn)
3.92 min | Cc1cc2nc3c(=O)[nH]c(=O)nc-3n(CC(O)C(O)C(O)CO)c2cc1C (stereo not drawn)
4.1 min | CC(C)CC(NC(=O)C(N)Cc1ccccc1)C(=O)O (stereo not drawn)

LC retention time | SMILES
2.8 min | CC(C)CC(N)C(=O)NC(Cc1ccc(O)cc1)C(=O)O (stereo not drawn)
0.525 min | Nc1ncnc2nc[nH]c12
3 min | COc1cc(C=CCO)ccc1OC1OC(CO)C(O)C(O)C1O (stereo not drawn)
5.6 min | COc1cc(CC2COC(c3ccc(O)c(OC)c3)C2CO)ccc1O (stereo not drawn)
3.3 min | CC(C)C(N)C(=O)NC(Cc1ccccc1)C(=O)O (stereo not drawn)
1.7 min | NC(Cc1ccccc1)C(=O)NCC(=O)O (stereo not drawn)
1.1 min | Nc1nc2c(ncn2C2OC(CO)C(O)C2O)c(=O)[nH]1 (stereo not drawn)
3.2 min | COc1cc(C=CCO)cc(OC)c1OC1OC(CO)C(O)C(O)C1O (stereo not drawn)
3.46 min | Cn1c(=O)c2c(ncn2C)n(C)c1=O
4.5 min | COc1cc2ccc(=O)oc2cc1O
0.839 min | O=c1[nH]cnc2c1ncn2C1OC(CO)C(O)C1O (stereo not drawn)
3.2 min | CC(C)CC(NC(=O)C(N)Cc1ccc(O)cc1)C(=O)O (stereo not drawn)
4.8 min | O=Cc1c[nH]c2ccccc12
2.9 min | CCC(C)C(NC(=O)C(N)Cc1ccc(O)cc1)C(=O)O (stereo not drawn)
1.6 min | Cc1cn(C2CC(O)C(CO)O2)c(=O)[nH]c1=O (stereo not drawn)
0.407 min | Cn1cnc(CC(N)C(=O)O)c1 (stereo not drawn)
